This is an account of results in patent US11648252B2, “Methotrexate for use as a medicament” (GF SERVICE S.R.L., priority 2018, dated 2023).

In data set [1] the test system is rheumatoid arthritis. The conditions noted are these: IV, initial 40 mg/m^2, final 26 mg/m^2; 10 test persons; infected plantar or severe nausea; cited from earlier work.
The subject of data set [2] is active rheumatoid arthritis. The conditions noted are these: intramuscular, 15 to 45 mg/m^2 within 22 weeks, plus 5 mg folinic acid per week; 27 test persons; recurrent chest infections or inefficacy; cited from earlier work.
Data set [3] relates to refractory rheumatoid arthritis. The conditions noted are these: IV 500 mg/m^2, 24 weeks, plus oral folinic acid 25 mg/m^2; 8 test persons; inefficacy, GI intolerance or sciatica; cited from earlier work.
In a further data set the test system is patients. Conditions: long-term data; cited from earlier work.
Data set [4] has as its system rheumatoid arthritis (RA). The conditions noted are these: treating rheumatoid arthritis; cited from earlier work.
For data set [5] the following is noted: cited from earlier work.
Data set [6] deals with resistant rheumatoid arthritis. The conditions noted are these: oral, 5 to 10 to 15 mg/m^2 within 16 weeks; 36 test persons; cited from earlier work.
In data set [7] the test system is patients with RA. Kind of data set: STEMETRA open-label pilot study, safety and tolerability (adverse events, CTCAE v4.0). The format is in vivo, human. Here is the method:
(§1) The STEp-down MEthotrexate Therapy in Rheumatoid Arthritis (STEMETRA) was an open-label, monocentric, pilot study with the primary aim of assessing the safety and the tolerability of high dose subcutaneous (SC)-MTX in patients with RA. […] In view of the exploratory nature of this study, the expected enrolment was of 10 patients. Patients received a SC-MTX commercially available formulation (Reumaflex®, Alfasigma, Italy), dispensed as prefilled syringes of 25 mg, 20 mg, and 15 mg. For reaching the dosage of 50 mg at the beginning of the study, patients injected two SC-MTX 25 mg syringes consecutively.
(§2) The protocol treatment schedule comprised administration of SC-MTX 50 mg/week for 4 consecutive weeks, followed by 25 mg/week for 4 weeks, and then 15 mg/week for 4 weeks. All patients received oral supplementation of folinic acid (leucovorin) 12 mg, twelve hours after the injection of SC-MTX. All patients had to be MTX-naïve; previous treatment with other conventional synthetic disease modifying anti-rheumatic drugs (cs)DMARDs was allowed only if they have already been withdrawn, for inefficacy or tolerability, before the baseline visit.
If a patient experience fatigue (with an intensity≥grade 2), he/she could receive a double dose of folinic acid: 12 mg at 12 and 24 hours after SC-MTX, respectively.
All the adverse events (AE) occurred during the study and follow-up periods were recorded according to the Common Terminology Criteria for Adverse Events (version 4.0).

The test system of data set [8] is patients with RA. Kind of data set: STEMETRA open-label pilot study, efficacy (DAS28) of step-down SC-MTX. Type of data set: in vivo, human. How it is done:
as §1
In the present experimental examples, the Disease Activity Score based on 28 joints (DAS28) testing was carried out according to the protocols described in Fransen J. et al., “Rheumatoid Arthritis measures: Disease Activity Score (DAS), Disease Activity Score-28 (DAS28), Rapid Assessment of Disease Activity in Rheumatology (RADAR), and Rheumatoid Arthritis Disease Activity Index (RADAI)”, Arthritis Rheum 2003; 49, Suppl 9: pages 214 to 224, as well as described in van der Heijde D. M. et al., “Development of a disease activity score based on judgment in clinical practice by rheumatologists”, J Rheumatol. 1993 March, 20(3), pages 579 to 581.
as §2
Eligible patients were≥18 years old affected by rheumatic arthritis (RA), according to the 2010 American College of […]/European league against rheumatism (ACR/EULAR) classification criteria^12, naïve to MTX and with an active disease, defined as a value of disease activity score (DAS)28≥3.2, with at least four tender joints and four swollen joints. Main exclusion criteria were: ongoing or previous treatment with bDMARDs, severe anaemia (defined as haemoglobin<[…]), severe thrombocytopenia (defined as platelets count<100,000/mm^3), severe leucopoenia or neutropenia (defined as white blood cells count<3,000 mm^3 or granulocytes count<1,000 mm^3), severe hepatic dysfunction [defined as aspartate aminotransferase (AST) or alanine aminotransferase (ALT)[…] the upper limit of normal(ULN)], renal function impairment (defined as creatinine clearance<40 mL/min), alcohol intake>70 g/week, pregnancy or breastfeeding, ongoing severe infections, previous infection with Hepatitis B (HBV) or Hepatitis C (HCV), positivity of Quantiferon or Mantoux test.
During each visit, disease activity score based on 28 joints (DAS28) [with both erythrocytes sedimentation rate (ESR) and C-reactive protein (CRP)], simplified disease activity index (SDAI), clinical disease activity index (CDAI), and the Health Assessment Questionnaire (HAQ) were evaluated and calculated as efficacy measures.

Data set [9] relates to rheumatoid arthritis. The conditions noted are these: IV 50 mg/week for 2 to 20 weeks; 14 test persons; oral ulceration, GI symptoms, liver enzyme abnormalities; cited from earlier work.
Setting [10] is: nine patients, study and follow-up periods.
Setting [11] is: week 12, nine patients, step-down SC-MTX 50/25/15 mg/week, oral folinic acid 12 mg.

As to `CN(Cc1cnc2nc(N)nc(N)c2n1)c1ccc(C(=O)N[C@@H](CCC(=O)O)C(=O)O)cc1` [MTX, (2S)-2-[[4-[(2,4-diaminopteridin-6-yl)methyl-methylamino]benzoyl]amino]-pentanedioic acid], in the data set on rheumatoid arthritis [1], the “test persons who did not complete the study” value is listed as “Two”. The “test persons who discontinued the treatment” value in data set [2] was 18.5%. For the same compound, the “test persons who withdrew the treatment” value in data set [3] is recorded as 37%. In addition, in the data set on patients, the “patients who could experience liver enzymes elevation” value was “more than 10%” and the “patients who had to stop MTX because of liver enzymes elevation” value was “less than 5%”. In addition, the “efficacy rate as a monotherapy” value in [4] was “about 35%”. Besides, the “dose over which absorption is known to plateau” value in data set [5] (oral (OR-MTX)) is 15 mg. Further, the “dosage at which oral absorption starts to plateau” value in data set [5] (oral) is 15 mg/week. Further, the “test persons who discontinued the treatment due to high toxicity” value in data set [6] was 33%. Further, the “increase of alanine aminotransferase (ALT)” value in the data set with patients with RA [7] (Patient #6, week 4, resolved spontaneously, normal at week 8) is given as below 2 ULN. In the data set with patients with RA [7] (setting [10]), the “number of patients in whom AEs occurred” value was 4 and the “total number of AEs” value was found to be 5. In addition, the “severe AEs” value with patients with RA [7] (nine patients, whole study) was “none”. For the same compound, the “number of patients with a mild (and transitory) increase in ALT” value in the data set on patients with RA [7] (week 4) is “one”. Besides, in the data set on patients with RA [7] (while taking SC-MTX 50 mg/week), the “AEs occurring in the first 4 weeks” value is listed as “none”. Moreover, the “patients with a significant reduction of DAS28” value in the data set with patients with RA [8] (step-down SC-MTX regimen, discussion summary) is reported as around 90%. In addition, the “patients showing a reduction in DAS28>1.2 from baseline” value with patients with RA [8] (week 12, 8 out of 9 patients, step-down SC-MTX 50/25/15 mg/week, oral folinic acid 12 mg) stood at 88.8%. For the same compound, in the data set with patients with RA [8] (week 12, nine patients, SC-MTX 50 mg/week 4 weeks, then 25 mg/week 4 weeks, then 15 mg/week 4 weeks, oral folinic acid 12 mg), the “patients who achieved DAS28 remission” value is given as 44.4%. In the data set with patients with RA [8] (setting [11]), the “patients showing moderate disease activity (DAS28)” value stood at 11.1%, the “patients who reached low disease activity (DAS28)” value turned out to be 22.2% and the “patients who still had high disease activity (DAS28)” value amounted to 22.2%. The “test persons who had to reduce or discontinue the treatment due to toxicity” value with rheumatoid arthritis [9] is reported as 35%.
